This is an account of results in PubChem BioAssay AID743476 (The Scripps Research Institute Molecular Screening Center, 2014).

Calls of active or inactive are those of the source. How the calls were made is not given here.

In this experiment the test system is CCHF-vOTU. As to the kind of experiment: PubChem AID 743476. The settings on record: Recombinant CCHFV vOTU, PEP-AMC fluorescence cleavage, with PEP-AMC substrate, hits give high values.

One may read the inhibition as the relative decrease from the control value, in per cent. `COc1cc(NCCCC(C)N)c2ncccc2c1` (stereo not given): the inhibition was 25.6% (Assay 1, at 2.52 µM); 0.7% (inactive) (Assay 2, at 2.52 µM); -1.2% (inactive) (Assay 3, at 5.04 µM).

Consider `Cc1ccccc1-c1cc2c(nn1)-c1ccccc1C2=O`, for which the inhibition (Assay 1, at 0.46 µM) was 27.6% and the inhibition (Assay 2, at 0.46 µM) was 24.5%.
